# Laboratory results: ChEMBL document CHEMBL5634141 (Eur J Med Chem, 2023)
# pIC50: −log10 of the molar value. Activity calls are given as the source filed them. The rule behind the calls is not given here.
# Experiments:
# SW837 [1] = test: Antiproliferative activity against human SW837 cells expressing KRAS G12C mutant assessed as relative cell viability at 30 nM incubated for 72 hrs in presence of naporafenib by CCK-8 assay; format: functional; conditions: read-out: Activity
# [2] = tested on: von Hippel-Lindau disease tumor suppressor/GTPase KRas (Homo sapiens), P01116+P40337 [G12C]; test: PROTAC activity at VHL/KRAS G12C mutant in human NCI-H358 cells assessed as inhibition of AKT phosphorylation at 100 nM incubated for 1 to 8 days by Western blotting analysis; format: cell-based; conditions: time 1-8 day
# NCI-H358 [3] = test: Induction of apoptosis in human NCI-H358 cells assessed as late apoptotic cells at 100 nM incubated for 48 hrs by Annexin V-FITC staining based flow cytometry analysis (reference value: 5.20 %); format: functional
# ASPC1 = test: Antiproliferative activity against human ASPC1 cells expressing KRAS G12D mutant assessed as inhibition of cell growth incubated for 72 hrs by CCK-8 assay; format: functional, cell-based; conditions: ASPC1, 72 h
# [4] = AUC (0 to infinity) in ICR mouse at 2 mg/kg, iv measured after 24 hrs by LC-MS/MS analysis; format: ADME, organism-based; conditions: in vivo
# Calu-1 = test: Antiproliferative activity against human Calu-1 cells expressing KRAS G12C mutant assessed as relative cell viability at 30 nM incubated for 72 hrs in presence of infigratinib by CCK-8 assay; format: functional; conditions: read-out: Activity
# NCI-H358 [5] = test: Antiproliferative activity against human NCI-H358 cells expressing KRAS G12C mutant assessed as reduction of cell growth by measuring fold decrease in IC50 incubated for 72 hrs in presence of AZD4573 by CCK-8 assay; format: functional
# NCI-H358 [6] = test: Antiproliferative activity against human NCI-H358 cells expressing KRAS G12C mutant assessed as reduction of cell growth by measuring fold decrease in IC50 incubated for 72 hrs in presence of Linsitinib by CCK-8 assay; format: functional
# NCI-H23 [7] = test: Antiproliferative activity against human NCI-H23 cells expressing KRAS G12C mutant assessed as relative cell viability at 30 nM incubated for 72 hrs in presence of selumetinib by CCK-8 assay; format: functional; conditions: read-out: Activity
# MIA PaCa-2 [8] = test: Antitumor activity against human MIA PaCa-2 cells xenografted in BALB/c nude mouse assessed as reduction in percentage of Ki67-positive cells at 10 to 30 mg/kg, ip administered for 16 days by immunohistochemical staining analysis; format: functional, organism-based; conditions: dose 10-30 mg/kg, time 16.0 day
# [9] = Volume of distribution at steady state in ICR mouse at 2 mg/kg, iv measured after 24 hrs by LC-MS/MS analysis; format: ADME, organism-based; conditions: in vivo
# [10] = tested on: von Hippel-Lindau disease tumor suppressor/GTPase KRas (Homo sapiens), P01116+P40337 [G12C]; test: PROTAC activity at VHL/KRAS G12C mutant in human NCI-H358 cells assessed as induction of protein degradation at 100 nM preincubated with AMG510 for 6 hrs followed by compound addition and measured after 48 hrs by Western blotting analysis; format: cell-based
# MIA PaCa-2 [11] = test: Induction of apoptosis in human MIA PaCa-2 cells assessed as viable cells at 100 nM incubated for 48 hrs by Annexin V-FITC staining based flow cytometry analysis (reference value: 91.5 %); format: functional; conditions: read-out: Activity
# MIA PaCa-2 [12] = test: Induction of apoptosis in human MIA PaCa-2 cells assessed as necrotic cells at 300 nM incubated for 48 hrs by Annexin V-FITC staining based flow cytometry analysis (reference value: 1.25 %); format: functional
# [13] = tested on: von Hippel-Lindau disease tumor suppressor/GTPase KRas (Homo sapiens), P01116+P40337 [G12C]; test: PROTAC activity at VHL/KRAS G12C mutant in human MIA PaCa-2 cells assessed as inhibition of ERK phosphorylation at 100 nM incubated for 1 to 8 days by Western blotting analysis; format: cell-based; conditions: time 1-8 day
# NCI-H358 [14] = test: Induction of cell cycle arrest in human NCI-H358 cells assessed as accumulation of cells at G2/M phase incubated for 48 hrs by propidium iodide staining based flow cytometry analysis; format: functional; conditions: dose 30-300 nM
# SW837 [15] = test: Antiproliferative activity against human SW837 cells expressing KRAS G12C mutant assessed as relative cell viability at 30 nM incubated for 72 hrs in presence of daclolisib by CCK-8 assay; format: functional; conditions: read-out: Activity
# [16] = tested on: von Hippel-Lindau disease tumor suppressor/GTPase KRas (Homo sapiens), P01116+P40337 [G12C]; test: PROTAC activity at VHL/KRAS G12C mutant in human MIA PaCa-2 cells assessed as induction of protein degradation in presence of AMG510 by Western blotting analysis; format: cell-based
# MIA PaCa-2 [17] = test: Antitumor activity against human MIA PaCa-2 cells xenografted in BALB/c nude mouse assessed as reduction in percentage of CD31-positive cells at 10 to 30 mg/kg, ip administered for 16 days by immunohistochemical staining analysis; format: functional, organism-based; conditions: dose 10-30 mg/kg, time 16.0 day
# [18] = tested on: von Hippel-Lindau disease tumor suppressor/GTPase KRas (Homo sapiens), P01116+P40337 [G12C]; test: Protac activity at VHL/KRAS G12C mutant in human NCI-H358 cells assessed as induction of protein degradation at 100 nM preincubated with VH032 for 6 hrs followed by compound addition and measured after 48 hrs by Western blot analysis; format: cell-based
# [19] = tested on: von Hippel-Lindau disease tumor suppressor/GTPase KRas (Homo sapiens), P01116+P40337 [G12C]; test: PROTAC activity at VHL/KRAS G12C mutant in human MIA PaCa-2 cells assessed as inhibition of Akt phosphorylation at 100 nM incubated for 1 to 8 days by Western blotting analysis; format: cell-based; conditions: time 1-8 day
# NCI-H358 [20] = test: Induction of apoptosis in human NCI-H358 cells assessed as necrotic cells at 30 nM incubated for 48 hrs by Annexin V-FITC staining based flow cytometry analysis (reference value: 1.62 %); format: functional
# NCI-H358 [21] = test: Antiproliferative activity against human NCI-H358 cells expressing KRAS G12C mutant assessed as relative cell viability at 30 nM incubated for 72 hrs in presence of crizotinib by CCK-8 assay; format: functional; conditions: read-out: Activity
# NCI-H358 [22] = test: Induction of apoptosis in human NCI-H358 cells assessed as viable cells at 300 nM incubated for 48 hrs by Annexin V-FITC staining based flow cytometry analysis (reference value: 91.6 %); format: functional; conditions: read-out: Activity
# [23] = tested on: von Hippel-Lindau disease tumor suppressor/GTPase KRas (Homo sapiens), P01116+P40337 [G12C]; test: PROTACactivity at VHL/KRAS G12C mutant in human NCI-H358 cells assessed as induction of protein degradation by measuring maximal efficacy incubated for 72 hrs by Western blot analysis relative to control; format: cell-based
# NCI-H358 [24] = test: Synergistic antiproliferative activity against human NCI-H358 cells expressing KRAS G12C mutant assessed as combination index at 30 nM incubated for 72 hrs in presence of selumetinib by CCK-8 assay; format: functional
# MIA PaCa-2 [25] = test: Antiproliferative activity against human MIA PaCa-2 cells expressing KRAS G12C mutant assessed as relative cell viability at 30 nM incubated for 72 hrs in presence of MK-2206 by CCK-8 assay; format: functional; conditions: read-out: Activity
# NCI-H23 [26] = test: Antiproliferative activity against human NCI-H23 cells expressing KRAS G12C mutant assessed as relative cell viability at 30 nM incubated for 72 hrs in presence of infigratinib by CCK-8 assay; format: functional; conditions: read-out: Activity
# NCI-H358 [27] = test: Synergistic antiproliferative activity against human NCI-H358 cells expressing KRAS G12C mutant assessed as combination index at 30 nM incubated for 72 hrs in presence of […] by CCK-8 assay; format: functional
# NCI-H358 [28] = test: Antiproliferative activity against human NCI-H358 cells expressing KRAS G12C mutant assessed as inhibition of cell growth incubated for 72 hrs by CCK-8 assay; format: functional, cell-based; conditions: NCI-H358, 72 h
# [29] = tested on: von Hippel-Lindau disease tumor suppressor/GTPase KRas (Homo sapiens), P01116+P40337 [G12C]; test: PROTAC activity at VHL/KRAS G12C mutant in human NCI-H358 cells assessed as inhibition of ERK phosphorylation at 100 nM incubated for 1 to 8 days by Western blotting analysis; format: cell-based; conditions: time 1-8 day
structure (smiles),measurement,setting,value
C=CC(=O)N1CCN(c2nc(=O)n(-c3c(C)ccnc3C(C)C)c3nc(-c4c(F)cccc4OCC4CCN(CCCC(=O)N[C@H](C(=O)N5C[C@H](O)C[C@H]5C(=O)NCc5ccc(-c6scnc6C)cc5)C(C)(C)C)CC4)c(F)cc23)[C@@H](C)C1,viability at 0.03 µM,SW837 [1],0.32%
same,Activity,[2],Active
same,Activity,NCI-H358 [3],10%
same,pIC50,ASPC1,< 5.00
same,AUC,[4],0.404 µg·h/mL
same,viability at 0.03 µM,Calu-1,0.36%
same,fold change (FC),NCI-H358 [5],~6
same,fold change (FC),NCI-H358 [6],~4
same,viability at 0.03 µM,NCI-H23 [7],0.24%
same,Activity,MIA PaCa-2 [8],Active
same,Vdss,[9],2 L/kg
same,Activity,[10],inactive
same,viability at 0.1 µM,MIA PaCa-2 [11],75.7%
same,Activity,MIA PaCa-2 [12],4.08%
same,Activity,[13],Active
same,Activity,NCI-H358 [14],Dose-Dependent Effect
same,viability at 0.03 µM,SW837 [15],0.24%
same,Activity,[16],inactive
same,Activity,MIA PaCa-2 [17],Active
same,Activity,[18],inactive
same,Activity,[19],Active
same,Activity,NCI-H358 [20],1.01%
same,viability at 0.03 µM,NCI-H358 [21],0.43%
same,viability at 0.3 µM,NCI-H358 [22],79.6%
same,Emax,[23],> 95%
same,CI,NCI-H358 [24],<1
same,viability at 0.03 µM,MIA PaCa-2 [25],0.24%
same,viability at 0.03 µM,NCI-H23 [26],0.41%
same,CI,NCI-H358 [27],<1
same,pIC50,NCI-H358 [28],7.04
same,Activity,[29],Active
